What was measured:
CBP = biological target: T1, CBP (Homo sapiens, UniProt Q92793); experiment: CBP degradation, HiBit technology in A549 CBP HiBit cells (24 h); assay type: cell-based; details: 24 hrs post treatment
T1 construct: host or cells: A549 CBP HiBit cells
Method in brief: (§1)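 A549 cells carrying HiBit-tagged p300 or CBP, seeded overnight at 37 °C/5% CO2, then treated with serial compound dilutions from 10 mM DMSO stocks. Incubation was 2 h for p300 and 24 h for CBP, followed by HiBit lytic detection reagent for 10 min at room temperature. Luminescence read gave degradation potency and Dmax.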

p300 = biological target: T2, p300 (Homo sapiens, UniProt Q09472); experiment: P300 degradation, HiBit technology in A549 P300 HiBit cells (2 h); assay type: cell-based; details: 2 hrs post treatment; for Dmax: A549, A549 P300 HiBit cells; for DC50: A549 P300 HiBit cells
T2 construct: host or cells: A549 P300 HiBit cells
Method in brief: as §1

T2 sequence (Q09472 whole entry): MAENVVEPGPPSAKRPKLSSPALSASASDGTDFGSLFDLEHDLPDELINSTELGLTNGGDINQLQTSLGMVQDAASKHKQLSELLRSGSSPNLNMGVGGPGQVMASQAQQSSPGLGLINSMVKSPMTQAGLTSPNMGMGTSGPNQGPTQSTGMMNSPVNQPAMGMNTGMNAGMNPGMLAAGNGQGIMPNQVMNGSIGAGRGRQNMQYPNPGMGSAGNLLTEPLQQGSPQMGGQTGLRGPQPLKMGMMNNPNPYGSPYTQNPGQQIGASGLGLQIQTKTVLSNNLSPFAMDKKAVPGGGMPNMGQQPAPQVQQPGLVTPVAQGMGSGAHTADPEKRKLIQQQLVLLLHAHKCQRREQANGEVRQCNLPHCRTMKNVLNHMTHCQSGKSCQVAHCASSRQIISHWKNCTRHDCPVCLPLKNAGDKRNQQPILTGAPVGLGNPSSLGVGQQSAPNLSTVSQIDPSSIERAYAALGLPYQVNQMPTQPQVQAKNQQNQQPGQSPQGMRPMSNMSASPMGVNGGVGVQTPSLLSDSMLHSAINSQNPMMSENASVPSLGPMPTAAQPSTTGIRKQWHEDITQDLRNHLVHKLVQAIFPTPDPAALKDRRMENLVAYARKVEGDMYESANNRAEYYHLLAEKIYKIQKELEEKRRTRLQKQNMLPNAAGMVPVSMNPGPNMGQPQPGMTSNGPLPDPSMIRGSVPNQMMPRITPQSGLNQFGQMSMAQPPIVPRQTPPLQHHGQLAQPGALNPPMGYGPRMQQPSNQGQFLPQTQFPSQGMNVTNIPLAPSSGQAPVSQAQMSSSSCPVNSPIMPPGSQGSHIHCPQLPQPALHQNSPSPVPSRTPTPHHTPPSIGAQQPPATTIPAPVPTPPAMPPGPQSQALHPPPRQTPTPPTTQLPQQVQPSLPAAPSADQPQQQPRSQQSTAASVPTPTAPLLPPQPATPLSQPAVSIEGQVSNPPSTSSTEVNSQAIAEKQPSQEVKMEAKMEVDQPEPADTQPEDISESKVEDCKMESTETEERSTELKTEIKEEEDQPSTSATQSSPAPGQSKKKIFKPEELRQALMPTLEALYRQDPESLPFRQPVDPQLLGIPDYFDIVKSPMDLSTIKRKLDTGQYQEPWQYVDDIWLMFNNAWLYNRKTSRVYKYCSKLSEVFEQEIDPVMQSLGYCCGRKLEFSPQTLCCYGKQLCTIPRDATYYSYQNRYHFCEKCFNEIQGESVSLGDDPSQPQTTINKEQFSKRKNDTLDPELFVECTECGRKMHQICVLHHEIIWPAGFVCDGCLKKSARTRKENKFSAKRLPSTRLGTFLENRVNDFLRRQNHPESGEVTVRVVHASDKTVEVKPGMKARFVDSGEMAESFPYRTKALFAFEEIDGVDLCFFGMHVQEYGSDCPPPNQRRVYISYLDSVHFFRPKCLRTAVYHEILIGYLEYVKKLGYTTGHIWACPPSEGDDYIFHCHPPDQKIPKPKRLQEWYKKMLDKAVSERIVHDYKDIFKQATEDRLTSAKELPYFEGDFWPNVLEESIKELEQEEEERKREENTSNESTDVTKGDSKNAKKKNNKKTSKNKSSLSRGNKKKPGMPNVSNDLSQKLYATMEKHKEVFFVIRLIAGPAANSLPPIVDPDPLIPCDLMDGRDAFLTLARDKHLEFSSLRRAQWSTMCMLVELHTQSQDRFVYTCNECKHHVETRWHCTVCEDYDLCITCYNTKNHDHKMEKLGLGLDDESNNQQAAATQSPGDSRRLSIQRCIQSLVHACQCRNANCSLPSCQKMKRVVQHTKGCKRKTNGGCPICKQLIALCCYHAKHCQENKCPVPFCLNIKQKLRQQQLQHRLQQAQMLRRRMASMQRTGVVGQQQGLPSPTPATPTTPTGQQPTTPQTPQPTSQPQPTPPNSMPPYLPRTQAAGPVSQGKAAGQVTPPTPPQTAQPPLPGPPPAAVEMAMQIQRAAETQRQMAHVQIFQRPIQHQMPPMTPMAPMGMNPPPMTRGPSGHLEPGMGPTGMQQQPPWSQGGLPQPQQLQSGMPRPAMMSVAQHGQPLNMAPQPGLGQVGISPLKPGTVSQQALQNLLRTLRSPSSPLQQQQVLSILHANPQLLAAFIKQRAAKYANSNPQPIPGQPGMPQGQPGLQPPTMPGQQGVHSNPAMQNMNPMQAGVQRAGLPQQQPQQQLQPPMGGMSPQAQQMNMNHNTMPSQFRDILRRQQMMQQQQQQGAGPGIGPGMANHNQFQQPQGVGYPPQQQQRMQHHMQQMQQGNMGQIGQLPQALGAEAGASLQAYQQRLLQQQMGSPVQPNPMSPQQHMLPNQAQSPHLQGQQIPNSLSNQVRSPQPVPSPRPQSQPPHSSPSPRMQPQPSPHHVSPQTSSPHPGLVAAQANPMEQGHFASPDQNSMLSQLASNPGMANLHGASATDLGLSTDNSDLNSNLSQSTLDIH
T1 sequence (Q92793 whole entry): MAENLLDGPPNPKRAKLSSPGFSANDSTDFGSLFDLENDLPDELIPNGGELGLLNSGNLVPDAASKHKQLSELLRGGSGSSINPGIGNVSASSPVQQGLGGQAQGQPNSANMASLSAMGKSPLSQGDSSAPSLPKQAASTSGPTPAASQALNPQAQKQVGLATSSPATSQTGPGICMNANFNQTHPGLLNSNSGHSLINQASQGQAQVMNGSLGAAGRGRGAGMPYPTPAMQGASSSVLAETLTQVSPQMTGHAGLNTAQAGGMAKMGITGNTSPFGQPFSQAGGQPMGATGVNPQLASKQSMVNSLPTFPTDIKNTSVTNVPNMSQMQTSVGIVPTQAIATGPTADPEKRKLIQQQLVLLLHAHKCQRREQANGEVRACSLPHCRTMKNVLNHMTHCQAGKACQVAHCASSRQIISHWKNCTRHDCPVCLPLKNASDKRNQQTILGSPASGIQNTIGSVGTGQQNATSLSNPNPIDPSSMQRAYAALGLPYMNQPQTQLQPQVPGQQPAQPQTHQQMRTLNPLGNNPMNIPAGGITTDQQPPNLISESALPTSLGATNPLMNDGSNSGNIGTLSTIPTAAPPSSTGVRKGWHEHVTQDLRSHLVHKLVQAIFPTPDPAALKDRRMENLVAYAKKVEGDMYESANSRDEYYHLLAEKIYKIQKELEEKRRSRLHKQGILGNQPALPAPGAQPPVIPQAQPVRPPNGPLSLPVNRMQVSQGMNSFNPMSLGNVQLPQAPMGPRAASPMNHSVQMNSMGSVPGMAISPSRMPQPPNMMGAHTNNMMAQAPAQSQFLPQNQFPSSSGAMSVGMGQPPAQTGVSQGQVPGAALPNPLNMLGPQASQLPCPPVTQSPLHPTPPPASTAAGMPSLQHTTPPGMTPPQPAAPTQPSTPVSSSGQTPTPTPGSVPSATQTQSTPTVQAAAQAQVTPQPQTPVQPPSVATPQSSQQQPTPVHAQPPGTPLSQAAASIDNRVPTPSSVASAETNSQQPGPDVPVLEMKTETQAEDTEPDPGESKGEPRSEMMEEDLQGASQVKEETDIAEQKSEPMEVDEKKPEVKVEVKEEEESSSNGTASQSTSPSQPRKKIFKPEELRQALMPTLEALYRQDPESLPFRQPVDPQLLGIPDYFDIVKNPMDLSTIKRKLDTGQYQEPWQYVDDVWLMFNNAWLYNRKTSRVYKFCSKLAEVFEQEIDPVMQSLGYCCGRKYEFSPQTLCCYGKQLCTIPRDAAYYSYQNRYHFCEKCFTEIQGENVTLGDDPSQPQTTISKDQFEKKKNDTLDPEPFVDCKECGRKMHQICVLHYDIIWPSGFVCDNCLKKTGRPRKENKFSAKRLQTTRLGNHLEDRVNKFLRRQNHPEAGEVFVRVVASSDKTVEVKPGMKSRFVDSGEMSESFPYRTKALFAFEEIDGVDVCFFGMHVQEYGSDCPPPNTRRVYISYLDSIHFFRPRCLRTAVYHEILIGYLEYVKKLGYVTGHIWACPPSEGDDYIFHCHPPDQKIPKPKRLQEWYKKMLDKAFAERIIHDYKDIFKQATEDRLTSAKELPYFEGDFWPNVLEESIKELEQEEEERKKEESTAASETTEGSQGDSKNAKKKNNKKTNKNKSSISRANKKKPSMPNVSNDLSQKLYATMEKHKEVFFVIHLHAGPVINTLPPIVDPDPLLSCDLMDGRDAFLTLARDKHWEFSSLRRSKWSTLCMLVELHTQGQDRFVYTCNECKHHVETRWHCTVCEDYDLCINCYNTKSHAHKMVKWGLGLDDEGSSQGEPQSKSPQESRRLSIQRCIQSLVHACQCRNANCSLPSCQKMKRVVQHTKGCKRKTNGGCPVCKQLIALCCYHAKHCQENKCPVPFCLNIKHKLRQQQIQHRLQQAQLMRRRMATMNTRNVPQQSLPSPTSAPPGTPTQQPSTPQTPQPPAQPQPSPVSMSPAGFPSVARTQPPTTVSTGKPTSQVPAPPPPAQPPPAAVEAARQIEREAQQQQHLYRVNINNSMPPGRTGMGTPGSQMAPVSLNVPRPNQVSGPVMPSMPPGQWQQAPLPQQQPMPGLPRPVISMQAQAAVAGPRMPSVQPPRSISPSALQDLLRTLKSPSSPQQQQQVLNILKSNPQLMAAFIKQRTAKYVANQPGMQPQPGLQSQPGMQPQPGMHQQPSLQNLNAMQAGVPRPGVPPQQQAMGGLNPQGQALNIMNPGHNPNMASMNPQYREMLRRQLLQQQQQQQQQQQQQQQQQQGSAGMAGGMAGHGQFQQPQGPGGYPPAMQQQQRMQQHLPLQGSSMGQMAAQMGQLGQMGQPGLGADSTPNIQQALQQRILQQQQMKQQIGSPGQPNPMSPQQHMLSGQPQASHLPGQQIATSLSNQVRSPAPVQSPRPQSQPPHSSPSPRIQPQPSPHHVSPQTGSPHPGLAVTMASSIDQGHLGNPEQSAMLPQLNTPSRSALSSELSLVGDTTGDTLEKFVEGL

Structure (SMILES) | DC50 (CBP) [nM] | Dmax (CBP) [%] | Dmax (p300) [%] | DC50 (p300) [nM]
Cn1c(=O)n(C)c2c(N3C4COCC3C4)nc(-c3cccc4cc(-c5ccc(C(=O)NCC#Cc6ccc7occ(C8CCC(=O)NC8=O)c7c6)nc5)ncc34)cc21 (stereo not drawn) [Example A99, 5-(8-(4-(3-oxa-6-azabicyclo[3.1.1]heptan-6-yl)-1,3-dimethyl-2-oxo-2,3-dihydro-1H-imidazo[4,5-c]pyridin-6-yl)isoquinolin-3-yl)-N-(3-(3-(2,6-dioxo-piperidin-3-yl)benzofuran-5-yl)prop-2-yn-1-yl)picolinamide] | > 1000 | < 20 | > 80 | < 1
Cn1c(=O)n(C)c2c(F)cc(-c3cccc4cc(-c5ccc(C(=O)NCC#Cc6ccc7occ(C8CCC(=O)NC8=O)c7c6)nc5)ncc34)cc21 (stereo not drawn) [Example A64, N-(3-(3-(2,6-dioxopiperidin-3-yl)benzofuran-5-yl)prop-2-yn-1-yl)-5-(8-(7-fluoro-1,3-dimethyl-2-oxo-2,3-dihydro-1H-benzo[d]imidazol-5-yl)isoquinolin-3-yl)picolinamide] | > 1000 | < 20 | > 80 | 1 to 9.9
Cn1c(=O)n(C)c2c(N3CCOCC3)cc(N3CCCc4nc(-c5ccc(C(=O)NCC#Cc6ccc7occ(C8CCC(=O)NC8=O)c7c6)nc5)ncc43)cc21 (stereo not drawn) [Example A127, 5-(5-(1,3-dimethyl-7-morpholino-2-oxo-2,3-dihydro-1H-benzo [d]imidazol-5-yl)-5,6,7,8-tetrahydro-pyrido[3,2-d]pyrimidin-2-yl)-N-(3-(3-(2,6-dioxopiperidin-3-yl)benzofuran-5-yl)prop-2-yn-1-yl)picolinamide] | > 1000 | < 20 | > 80 | < 1
Cn1c(=O)n(C)c2c(N3CC4CC(C3)O4)nc(-c3cccc4cc(-c5ccc(C(=O)NCC#Cc6cc7c(C8CCC(=O)NC8=O)cccc7o6)nc5)ncc34)cc21 (stereo not drawn) [Example A210, 5-(8-(4-(6-oxa-3-azabicyclo[3.1.1]heptan-3-yl)-1,3-dimethyl-2-oxo-2,3-dihydro-1H-imidazo[4,5-c]pyridin-6-yl)isoquinolin-3-yl)-N-(3-(4-(2,6-dioxopiperidin-3-yl)benzofuran-2-yl)prop-2-yn-1-yl)picolinamide] | > 1000 | < 20 | > 80 | < 1
Cc1cc2c(N3CCCc4nc(-c5ccc(C(=O)NCC#Cc6cc7c([C@@H]8CCC(=O)NC8=O)cccc7o6)nc5)ncc43)cc(C3CCOCC3)cc2n(C)c1=O [Example B39, (S)-5-(5-(1,3-dimethyl-2-oxo-7-(tetrahydro-2H-pyran-4-yl)-1,2-dihydroquinolin-5-yl)-5,6,7,8-tetrahydropyrido[3,2-d]pyrimidin-2-yl)-N-(3-(4-(2,6-dioxopiperidin-3-yl)benzofuran-2-yl)prop-2-yn-1-yl)picolinamide] | > 1000 | < 20 | > 80 | 1 to 9.9
CCc1cc(-c2cccc3cc(-c4ccc(C(=O)NCC#Cc5ccc6ncn(C7CCC(=O)NC7=O)c6c5)nc4)ncc23)c2cc(C)c(=O)n(C)c2c1 (stereo not drawn) [Example B2, N-(3-(1-(2,6-Dioxopiperidin-3-yl)-1H-benzo[d]imidazol-6-yl)prop-2-yn-1-yl)-5-(8-(7-ethyl-1,3-dimethyl-2-oxo-1,2-dihydroquinolin-5-yl)isoquinolin-3-yl)picolinamide] | > 1000 | < 20 | 60 to 79 | 1 to 9.9
Cc1cc2c(N3CCCc4nc(-c5ccc(C(=O)NCC#Cc6cc7c([C@H]8CCC(=O)NC8=O)cccc7o6)nc5)ncc43)cc(C3CCOCC3)cc2n(C)c1=O [Example B38, (R)-5-(5-(1,3-dimethyl-2-oxo-7-(tetrahydro-2H-pyran-4-yl)-1,2-dihydroquinolin-5-yl)-5,6,7,8-tetrahydropyrido[3,2-d]pyrimidin-2-yl)-N-(3-(4-(2,6-dioxopiperidin-3-yl)benzofuran-2-yl)prop-2-yn-1-yl)picolinamide] | > 1000 | < 20 | > 80 | < 1

Next, values leading:

DC50 (CBP) [nM] | Dmax (CBP) [%] | Dmax (p300) [%] | DC50 (p300) [nM] | Structure (SMILES)
> 1000 | < 20 | > 80 | < 1 | Cn1c(=O)n(C)c2c(N3CCC(C)(O)CC3)nc(-c3cccc4cc(-c5ccc(C(=O)NCC#Cc6cc7c(C8CCC(=O)NC8=O)cccc7o6)nc5)ncc34)cc21 (stereo not drawn) [Example A258, N-(3-(4-(2,6-dioxo-piperidin-3-yl)benzofuran-2-yl)prop-2-yn-1-yl)-5-(8-(4-(4-hydroxy-4-methylpiperidin-1-yl)-1,3-dimethyl-2-oxo-2,3-dihydro-1H-imidazo[4,5-c]pyridin-6-yl)isoquinolin-3-yl)picolinamide]
> 1000 | < 20 | > 80 | 1 to 9.9 | Cc1cc(-c2ncc3c(n2)CCCN3c2nc(N3CCOCC3)cc3c2cc(C)c(=O)n3C)cnc1C(=O)NCC#Cc1ccc2occ(C3CCC(=O)NC3=O)c2c1 (stereo not drawn) [Example B71, 5-(5-(1,3-dimethyl-7-morpholino-2-oxo-1,2-dihydro-1,6-naphthyridin-5-yl)-5,6,7,8-tetrahydropyrido[3,2-d]pyrimidin-2-yl)-N-(3-(3-(2,6-dioxopiperidin-3-yl)benzofuran-5-yl)prop-2-yn-1-yl)-3-methylpicolinamide]
> 1000 | < 20 | 20 to 39 | 10 to 99 | Cn1c(=O)n(C)c2cc(N3CCOc4nc(-c5ccc(C(=O)NCC#Cc6cc7cccc(C8CCC(=O)NC8=O)c7o6)nc5)ncc43)ccc21 (stereo not drawn) [Example A247, 5-(5-(1,3-dimethyl-2-oxo-2,3-dihydro-1H-benzo[d]imidazol-5-yl)-6,7-dihydro-5H-pyrimido[4,5-b][1,4]oxazin-2-yl)-N-(3-(7-(2,6-dioxopiperidin-3-yl)benzofuran-2-yl)prop-2-yn-1-yl) picolinamide]
> 1000 | < 20 | > 80 | 1 to 9.9 | Cn1c(=O)n(C)c2cc(C3=CC(C)(C)Oc4cc(-c5ccc(C(=O)NCC#Cc6cc7c(C8CCC(=O)NC8=O)cccc7o6)nc5)ncc43)ccc21 (stereo not drawn) [Example A259, 5-(4-(1,3-dimethyl-2-oxo-2,3-dihydro-1H-benzo[d]imidazol-5-yl)-2,2-dimethyl-2H-pyrano[3,2-c]pyridin-7-yl)-N-(3-(4-(2,6-dioxopiperidin-3-yl)benzofuran-2-yl)prop-2-yn-1-yl)picolinamide]
> 1000 | < 20 | > 80 | 1 to 9.9 | Cc1cc(-c2ncc(N(C)c3cc(C4CCOCC4)c4c(c3)n(C)c(=O)n4C)cn2)cnc1C(=O)NCC#Cc1ccc2occ([C@H]3CCC(=O)NC3=O)c2c1 [Example A54, (R)-5-(5-((1,3-dimethyl-2-oxo-7-(tetrahydro-2H-pyran-4-yl)-2,3-dihydro-1H-benzo[d]imidazol-5-yl)(methyl)amino)pyrimidin-2-yl)-N-(3-(3-(2,6-dioxopiperidin-3-yl)benzofuran-5-yl)prop-2-yn-1-yl)-3-methylpicolinamide]
100 to 999 | < 20 | > 80 | 1 to 9.9 | Cc1cc(-c2ncc3c(n2)CCCN3c2cc(C3CCOCC3)nc3c2cc(C)c(=O)n3C)cnc1C(=O)NCC#Cc1cc2c(C3CCC(=O)NC3=O)cccc2o1 (stereo not drawn) [Example B103, 5-(5-(6,8-dimethyl-7-oxo-2-(tetrahydro-2H-pyran-4-yl)-7,8-dihydro-1,8-naphthyridin-4-yl)-5,6,7,8-tetrahydropyrido[3,2-d]pyrimidin-2-yl)-N-(3-(4-(2,6-dioxopiperidin-3-yl)benzofuran-2-yl)prop-2-yn-1-yl)-3-methylpicolinamide]
> 1000 | < 20 | > 80 | 1 to 9.9 | CCN(c1cnc(-c2cnc(C(=O)NCC#Cc3ccc4occ(C5CCC(=O)NC5=O)c4c3)c(C)c2)nc1)c1cc(C2CCOCC2)c2c(c1)n(C)c(=O)n2C (stereo not drawn) [Example A95, 5-(5-((1,3-dimethyl-2-oxo-7-(tetrahydro-2H-pyran-4-yl)-2,3-dihydro-1H-benzo [d]imidazol-5-yl)(ethyl)amino)pyrimidin-2-yl)-N-(3-(3-(2,6-dioxopiperidin-3-yl)benzofuran-5-yl)prop-2-yn-1-yl)-3-methylpicolinamide]
10 to 99 |  |  | 1 to 9.9 | CN1Cc2c(-c3cccc4cc(-c5ccc(C(=O)NCC#Cc6ccc7cnn(C8CCC(=O)NC8=O)c7c6)nc5)ncc34)cc(C(C)(F)F)cc2N(C)C1=O (stereo not drawn) [Example B111, 5-(8-(7-(1,1-difluoroethyl)-1,3-dimethyl-2-oxo-1,2,3,4-tetrahydroquinazolin-5-yl)isoquinolin-3-yl)-N-(3-(1-(2,6-dioxopiperidin-3-yl)-1H-indazol-6-yl)prop-2-yn-1-yl)picolinamide]
10 to 99 | 20 to 39 | > 80 | < 1 | Cc1cc(-c2ncc3c(n2)CCCN3c2cc(C3CCOCC3)cc3c2cc(C)c(=O)n3C)cnc1C(=O)NCC#Cc1cc2c(C3CCC(=O)NC3=O)cccc2o1 (stereo not drawn) [Example B141, 5-(5-(1,3-dimethyl-2-oxo-7-(tetrahydro-2H-pyran-4-yl)-1,2-dihydroquinolin-5-yl)-5,6,7,8-tetrahydropyrido[3,2-d]pyrimidin-2-yl)-N-(3-(4-(2,6-dioxopiperidin-3-yl)benzofuran-2-yl)prop-2-yn-1-yl)-3-methylpicolinamide]
100 to 999 | < 20 | > 80 | < 1 | CC(C)c1cc(-c2cccc3cc(-c4ccc(C(=O)NCC#Cc5ccc6ncc(C7CCC(=O)NC7=O)n6c5)nc4)ncc23)cc2c1n(C)c(=O)n2C (stereo not drawn) [Example A25, N-(3-(3-(2,6-Dioxopiperidin-3-yl)imidazo[1,2-a]pyridin-6-yl)prop-2-yn-1-yl)-5-(8-(7-isopropyl-1,3-dimethyl-2-oxo-2,3-dihydro-1H-benzo[d]imidazol-5-yl)isoquinolin-3-yl)picolinamide]

Source: patent US20250114345A1, “COMPOUNDS AND COMPOSITIONS AS CBP/P300 DEGRADERS AND USES THEREOF” (Oncopia Therapeutics, Inc. d/b/a/ SK Life Science Labs, priority 2023, published 2025)
